Experimental data reported in patent US4841051A, “Phenylpiperazine derivatives” (Nippon Kayaku Kabushiki Kaisha, priority 1985, dated 1989).

Columns and labels:
[1] = target: T1, isolated vas deferens of a rat (Rattus norvegicus, UniProt P43140); assay: Action on isolated vas deferens of a rat (antagonism against noradrenaline); parameters: species or system SD male rat; conditions: 3 minutes pretreatment, 32° C., read-out: pA2 (converted)
T1 construct: The vas deferens was isolated from SD male rats and cut into strips about 20 mm long; from tissue; host or cells: vas deferens of SD male rats
T1 sequence (P43140 1-466): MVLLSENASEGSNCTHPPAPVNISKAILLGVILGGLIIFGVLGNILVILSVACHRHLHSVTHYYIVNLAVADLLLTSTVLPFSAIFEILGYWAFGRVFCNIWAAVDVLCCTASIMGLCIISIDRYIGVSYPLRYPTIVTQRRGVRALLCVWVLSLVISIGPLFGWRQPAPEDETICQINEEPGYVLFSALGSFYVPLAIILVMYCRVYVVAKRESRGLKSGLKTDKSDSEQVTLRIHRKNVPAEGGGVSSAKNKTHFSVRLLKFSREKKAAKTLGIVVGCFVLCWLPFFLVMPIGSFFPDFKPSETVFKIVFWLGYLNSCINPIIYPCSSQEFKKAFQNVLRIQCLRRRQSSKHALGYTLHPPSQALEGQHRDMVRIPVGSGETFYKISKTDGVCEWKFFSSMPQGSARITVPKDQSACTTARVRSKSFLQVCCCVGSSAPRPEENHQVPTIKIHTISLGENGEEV
Procedure: The vas deferens was isolated from SD male rats and cut into strips about 20 mm long. The both ends of the strip were bounded with two threads respectively. The thread attached to one end of the strips was fixed in a 10-ml organ bath and the thread attached to other end was connected to an isotonic transducer. The bath was filled with Tyrode's solution of 32° C. comprising a solution of 8.0 g of NaCl, 0.2 g of KCl, 0.2 g of CaCl2, 0.1 g of MgCl2, 0.05 g of NaH2 PO4, 1.0 g of NaHCO3 and 1.0 g of glucose in 1 l of deionized water. A gas mixture comprising 95% of oxygen and 5% of carbon dioxide was bubbled into the bath. Resting tension of 0.5 g was loaded. Noradrenaline was treated accumulatively in the bath to obtain a consistent dose-response curve. After the pretreatment of the preparation with a sample compound for 3 minutes, another dose-response curve of noradrenaline was obtained to determine the activities of the compound. The strength of antagonism against noradrenaline was determined from these dose-response curves in terms of pA2 value.

[2] = Acute toxicity, intraperitoneal; conditions: mouse, in vivo, ip, ICR male mice, up-and-down method or van der Welden method
Procedure: The acute toxicity due to intraperitoneal administration of a sample compound was examined by using ICR male mice (CRJ-ICR: weight of 29.5 to 52.3 g). Each sample compound was administered to from ten to thirty mice. The mice were observed until the symptom got well again. The LD50 values were determined by the up-and-down method or by van der Welden method.

SHR rat = assay: Hypotensive activity, SHR rat; assay type: in vivo; conditions: 3 μg/kg, injected into femoral vein, anesthetized SHR rat
Procedure: (§1) The experiment was carried out using an SHR or SD male rat under anesthesia. The blood pressure was measured by inserting a polyethylene tube (a product of Clay Adams Co., Ltd.: PE-50) into its carotid arteries and using a pressure transducer (a product of Century Technology Company: CP-01) and continuously recorded on a recorder (a product of Nippon Koden Co., Ltd.). Sample compounds were each injected by a polyethylene tube (a product of Clay Adams Co., Ltd.: PE-10) inserted into the femoral vein of the rat in an amount of 3 μg/kg for an SHR rat or 10 μg/kg for an SD rat to examine the maximum hypotensive effect on systolic pressure.

SD rat = assay: Hypotensive activity, SD rat; assay type: in vivo, SD male rat; conditions: 10 μg/kg, injected into femoral vein, anesthetized SD rat
Procedure: as §1

α1 -receptor = assay: α1 -blocking activity (inhibition of blood pressure increase due to phenylephrine); assay type: in vivo; conditions: 10 μg/kg, femoral vein; phenylephrine 2 μg/kg i.v.; anesthetized SD male rat
Procedure: The blood pressure (a) of an SD male rat of 7 to 8 weeks of age was measured and 2 μg/kg of phenylephrine was administered to the rat by intravenous injection. Then the maximum response of blood pressure (b) was measured. 10 μg/kg of a sample compound was administered to the rats, followed by the intravenous injection of 2 μg/kg of phenylephrine. Then, the maximum response of blood pressure (c) was measured. The depression (d) of blood pressure increased due to phenylephrine was calculated by the following equation: [formula]
The animal was anesthetized by intraperitoneal administration of 40 mg/kg of nembutal and the anesthetic depth was kept by intravenous drip infusion of 15 mg/kg/hr of pentobarbital sodium. The blood pressure was measured by inserting a polyethylene tube (a product of Clay Adams: PE-50) and using a transducer (a product of Century Technology Company: CP-01) and continuously recorded on a pen oscillograph (a product of Nippon Koden Co., Ltd. WI-6416). Each sample compound was injected by a polyethylene tube (a product of Clay Adams Co., Ltd.: PE-10) inserted into the femoral vein.

Compound: CCOc1ccccc1N1CCN(CCn2cnc3ccccc3c2=O)CC1 [Compound 1, 3-[2-[4-(2-Ethoxyphenyl)-1-piperazinyl]-ethyl]-4(3H)-quinazolone]
- Kb [1]: 0.501 nM
- LD50 [2]: 400 mg/kg
- maximum hypotensive effect on systolic pressure, SHR rat (SHR rat): +++ (pressure drop of 21 to 30 mmHg)

Compound: CCOc1ccccc1N1CCN(CCn2c(C)nc3ccccc3c2=O)CC1 [Compound 3]
- Kb [1]: 3.16 nM
- LD50 [2]: 119 mg/kg
- maximum hypotensive effect on systolic pressure, SHR rat (SHR rat): +++ (pressure drop of 21 to 30 mmHg)

Compound: CCOc1ccccc1N1CCN(CCCn2c(C)nc3ccccc3c2=O)CC1 [Compound 4]
- Kb [1]: 10 nM
- LD50 [2]: 152 mg/kg
- maximum hypotensive effect on systolic pressure, SHR rat (SHR rat): ++ (pressure drop of 11 to 20 mmHg)

Compound: CCOc1ccccc1N1CCN(CCCCn2cnc3ccccc3c2=O)CC1 [Compound 5, 3-{4-[4-(2-Ethoxyphenyl)-1-piperazinyl]butyl}-4(3H)-quinazolone]
- Kb [1]: 0.398 nM
- maximum hypotensive effect on systolic pressure, SD rat (SD rat): 57.5 mmHg
- LD50 [2]: 150 mg/kg
- maximum hypotensive effect on systolic pressure, SHR rat (SHR rat): +++ (pressure drop of 21 to 30 mmHg)
- Percentage of inhibition of blood pressure increase (α1 -receptor): 89.6%

Compound: CCOc1ccccc1N1CCN(CCCn2c(C)nc3nc(C)cc(C)c3c2=O)CC1 [Compound 6, 2,5,7-Trimethyl-3-[3-[4-(2-ethoxyphenyl)-1-piperazinyl]-propyl]pyrido[2,3-d]pyrimidin-4(3H)-one]
- Kb [1]: 2.51 nM
- LD50 [2]: 128 mg/kg
- maximum hypotensive effect on systolic pressure, SHR rat (SHR rat): ++ (pressure drop of 11 to 20 mmHg)

Compound: CCOc1ccccc1N1CCN(CCCCn2c(C)nc3nc(C)cc(C)c3c2=O)CC1 [Compound 7]
- Kb [1]: 5.01 nM
- LD50 [2]: 137 mg/kg
- maximum hypotensive effect on systolic pressure, SHR rat (SHR rat): ++ (pressure drop of 11 to 20 mmHg)

Compound: CCOc1ccccc1N1CCN(CCn2c(C)nc3nc(C)cc(C)c3c2=O)CC1 [Compound 8]
- Kb [1]: 6.31 nM
- LD50 [2]: 207 mg/kg
- maximum hypotensive effect on systolic pressure, SHR rat (SHR rat): ++ (pressure drop of 11 to 20 mmHg)

Compound: CCOc1ccccc1N1CCN(CCCCn2c(=O)n(-c3ccccc3)c(=O)c3c(C)cc(C)nc32)CC1 [Compound 10, 3-Phenyl-5,7-dimethyl-1-[4-[4-(2-ethoxyphenyl)-1-piperazinyl]butyl]pyrido[2,3-d]pyrimidine-2,4(1H,3H)-dione]
- Kb [1]: 7.94 nM
- LD50 [2]: 328 mg/kg
- maximum hypotensive effect on systolic pressure, SHR rat (SHR rat): ++ (pressure drop of 11 to 20 mmHg)
